Test results reported in the NIST ThermoML archive (doi:10.1021/je900596d).

Settings: 357.01 K, Liquid, Vibrating tube method

FC(F)=C(F)C(F)(F)F [hexafluoropropene]
Settings | mass density [kg/m3]
3815.9 kPa | 942.63
3841.4 kPa | 944.76
3866.1 kPa | 946.85
3891.2 kPa | 948.86
3916.1 kPa | 950.85
3941.3 kPa | 952.87
3966.7 kPa | 954.74
3992.1 kPa | 956.67
4032.7 kPa | 959.68
4052.9 kPa | 961.12
4073.2 kPa | 962.41
4094 kPa | 963.87
4114.8 kPa | 965.29
4135 kPa | 966.6
4155.1 kPa | 967.92
4175.4 kPa | 969.27
4195.5 kPa | 970.62
4215.6 kPa | 971.88
4258.3 kPa | 974.59
4279.4 kPa | 975.81
4299.6 kPa | 977.03
4320.4 kPa | 978.34
4340.8 kPa | 979.7
4361.8 kPa | 980.83
4383.2 kPa | 982.1
4404.3 kPa | 983.28
4445.8 kPa | 985.59
4467.1 kPa | 986.71
4488.7 kPa | 987.99
4929.3 kPa | 1009.65
4970.6 kPa | 1011.35
5012.8 kPa | 1013.28
5053.2 kPa | 1015.04
5094.4 kPa | 1016.71
5178.4 kPa | 1020.12
5218.9 kPa | 1021.7
5262 kPa | 1023.52
5302.8 kPa | 1025.13
5344.2 kPa | 1026.56
5426.4 kPa | 1029.68
5468.6 kPa | 1031.33
5509.4 kPa | 1032.71
5595.1 kPa | 1035.91
5636.8 kPa | 1037.33
5678.3 kPa | 1038.78
5720.2 kPa | 1040.29
5761.9 kPa | 1041.7
5802.7 kPa | 1043
5844 kPa | 1044.41
5885.2 kPa | 1045.79
5926.3 kPa | 1047.08
5966.4 kPa | 1048.43
6079.9 kPa | 1052.05
6121.3 kPa | 1053.27
6161.6 kPa | 1054.49
6202.1 kPa | 1055.73
6242.6 kPa | 1057.02
6283 kPa | 1058.17
6323.7 kPa | 1059.35
6365.4 kPa | 1060.53
6405.9 kPa | 1061.73
6446.1 kPa | 1062.93
6487.1 kPa | 1063.92
6527.7 kPa | 1065.18
6568.3 kPa | 1066.33
6649.5 kPa | 1068.55
6689.8 kPa | 1069.61
6730.6 kPa | 1070.82
6771.8 kPa | 1071.89
6812.8 kPa | 1072.89
6854 kPa | 1074.05
6894.2 kPa | 1075.07
6976.2 kPa | 1077.12
7016.9 kPa | 1078.17
7059.1 kPa | 1079.19
7099.3 kPa | 1080.34
7141 kPa | 1081.32
7182 kPa | 1082.35
7223.7 kPa | 1083.32
7265.2 kPa | 1084.37
7306.5 kPa | 1085.33
7391.5 kPa | 1087.34
7432.1 kPa | 1088.27
7472.8 kPa | 1089.26
7514.5 kPa | 1090.2
7555.9 kPa | 1091.18
7596.5 kPa | 1092.11
7637.6 kPa | 1093.07
7760.7 kPa | 1095.83
7802.6 kPa | 1096.76
7843.1 kPa | 1097.59
7885.2 kPa | 1098.49
7925.7 kPa | 1099.42
7967.5 kPa | 1100.24
8050.7 kPa | 1102.02
8094 kPa | 1102.97
8134 kPa | 1103.77
8175.6 kPa | 1104.71
8217.3 kPa | 1105.6
8258 kPa | 1106.39
8301 kPa | 1107.38
8342.7 kPa | 1108.09
8385.4 kPa | 1108.93
8428.9 kPa | 1109.88
8510.3 kPa | 1111.46
8552.8 kPa | 1112.27
8592.9 kPa | 1113.04
8634.2 kPa | 1113.83
8675.9 kPa | 1114.7
8717.3 kPa | 1115.43
8760 kPa | 1116.3
8843.1 kPa | 1117.91
8884.8 kPa | 1118.68
8926.5 kPa | 1119.39
8969.2 kPa | 1120.21
9010.2 kPa | 1120.94
9055 kPa | 1121.82
9096.9 kPa | 1122.57
9138.6 kPa | 1123.29
9223.4 kPa | 1124.87
9264.9 kPa | 1125.67
9307.3 kPa | 1126.46
9350.7 kPa | 1127.19
9393 kPa | 1127.83
9476.5 kPa | 1129.45
9518.3 kPa | 1130.09
9558.9 kPa | 1130.8
9598.9 kPa | 1131.49
9640.9 kPa | 1132.16
9683.8 kPa | 1132.95
9726.5 kPa | 1133.66
9769.9 kPa | 1134.38
9810.5 kPa | 1135.04
